From patent publication US7521432B2, “Compositions and methods for identifying agents which regulate chromosomal stability, gene activation and aging” (priority 2000, dated 2009)
Read-outs that look alike come from different tables or passages of the source.

Tests used:
[1] = target: T1, HST2 (Saccharomyces cerevisiae, UniProt P53686); experiment: HST2 steady-state deacetylation reactions, substrate saturation curves (HPLC); assay type: biochemical, yeast
Source text: Materials. [^3H]Acetyl-CoA (1.88 Ci/mmol) and Na-[^3H]-acetate (100,000 cpm/nmol) was from NEN Life Sciences Products. Nicotinamide, ADP-ribose, and nicotinamide adenine dinucleotide (NAD) were purchased from Sigma Chemical Company. Histone H3 peptide, […] and the Lysine 14 acetylated H3 peptide (AcLys-14), corresponding to the 20 amino-terminal residues of human histone H3 was synthesized by the Protein Chemistry Core Lab at Baylor College of Medicine. Histidine tagged full length HST2 was recombinantly expressed and purified from Escherichia coli BL21DE3 bacteria using a T7 polymerase-based expression. […] HST2 eluted at 200 mM imidazole and was determined to be >95% pure by scanning densitometry of commassie-stained SDS-PAGE. […] The peaks of absorbance at 214/260 nm were collected and subjected to mass spectral analysis. [^3H]-acetate was detected by liquid scintillation counting. […]
Typical HST2 steady-state reactions to monitor deacetylation of AcLys-14 H3 peptide or nicotinamide formation were carried out at 37° C. in 50 mM Tris, pH 7.5 buffer. Rates of product formation were determined at various concentrations of AcLys-14 H3 peptide (5-300 μM) and NAD^+ (5-600 μM). During the linear portion of the initial velocity, the reactions were quenched with TFA to 1% and product formation was monitored by the HPLC analysis described above. […]

[2] = target: T1, HST2; experiment: Rapid-reaction single turnover quench-flow analysis; assay type: biochemical, yeast; details: HST2, excess NAD^+, sub-stoichiometric [^3H]-AcLys14 H3, 22±3° C., pH 7.5, single exponential fit
Source text: FIGS. 5A-5C are a series of graphs showing that acetate is not a primary product of HST2-catalyzed histone/protein deacetylation. H3 peptide was stoichiometrically acetylated on Lys-14 by the histone acetyltransferase P/CAF and using [^3H]-AcCoA. Monoacetylated [^3H]-AcLys-14 H3 peptide was then purified by HPLC (FIG. 5A) and utilized as a substrate in the HST2 deacetylation reactions (FIG. 5B). Upon complete consumption of [^3H]-AcLys-14 H3 by HST2, all of the original [^3H] from H3 peptide was converted to a labeled product that eluted much later than authentic acetate. Conditions: 375 nM HST2, 175 μM NAD^+, 5 μM [^3H]-Lys14 AcH3, 1 mM DTT, for 1 min at 37° C. prior to quenching with TFA to a final concentration of 1%. FIG. 5C: Single turnover rapid quench-flow analysis. […] Quantification of [^3H]-AcLys14 H3 peptide (diamonds) and the [^3H]-acetate-adduct (circles) was accomplished by liquid scintillation counting of these species separated using reverse phase HPLC. […]
P/CAF [^3H]-monoacetylation of H3 peptide. […] Every mass spectrum was recorded as the sum of 20 consecutive spectra, each produced by a single pulse of photons. […] The amount of [^3H]-AcLys14 H3 peptide and [^3H]-O-acetyl ADP ribose was determined by liquid scintillation counting of these species separated on reverse phase HPLC. […]

[3] = target: T2, SIR2 family of enzymes (Saccharomyces cerevisiae, UniProt P53686); experiment: HST2 steady-state reactions with NGD as alternative substrate to NAD; assay type: biochemical
T2 construct: Histidine tagged full length HST2 was recombinantly expressed and purified from Escherichia coli BL21DE3 bacteria; Histidine tag; made in house; host or cells: Escherichia coli BL21DE3
T2 sequence (P53686 whole entry): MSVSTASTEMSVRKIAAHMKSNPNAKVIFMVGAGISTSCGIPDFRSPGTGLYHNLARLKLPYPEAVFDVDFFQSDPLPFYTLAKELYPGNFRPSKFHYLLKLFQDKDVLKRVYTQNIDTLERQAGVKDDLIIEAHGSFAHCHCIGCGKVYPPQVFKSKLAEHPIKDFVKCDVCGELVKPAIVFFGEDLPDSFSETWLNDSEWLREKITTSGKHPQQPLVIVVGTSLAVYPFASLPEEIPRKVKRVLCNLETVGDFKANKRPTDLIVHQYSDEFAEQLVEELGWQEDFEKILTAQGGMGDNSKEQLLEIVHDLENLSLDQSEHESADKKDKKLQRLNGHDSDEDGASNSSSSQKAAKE
Source text: The details of the reaction conditions are as described in the materials and methods section. This enzymatic process may be used to advantage to generate novel O-acetyl-nucleotide analogs. These analogs may be used in the development of inhibitors for SIR2 and SIR homologs, or for the proteins/enzymes that normally bind/utilize O-acetyl-ADP ribose. More importantly, these enzyme-derived nucleotide analogs may serve as potent therapeutics for cancer and aging, releasing the block for transcriptionally-silenced genes that have been inappropriately silenced during tumorigenesis and aging, as discussed earlier.
Typical HST2 steady-state reactions to monitor deacetylation of AcLys-14 H3 peptide or nicotinamide formation with nicotinamide guanine dinucleotide (NGD) as an alternative substrate to NAD were carried out at various concentrations of AcLys-14 H3 peptide (5-100 μM) and NGD (10-400 μM). During the linear portion of the initial velocity, the reactions were monitored by reverse phase HPLC analysis on a Beckman Ultrasphere column (4.6 mm×15 cm). Samples were injected in 0.05% trifluoroacetic acid (TFA)/H2O for 1 min before a linear gradient of 0-40% acetontrile in 1-41 min.

[4] = tested on: poly(ADP-ribosyl)transferases and SIR2 enzymes; details: poly(ADP-ribosyl)transferases and SIR2 enzymes exhibit similar values; read-out: Km values for NAD^+; cited from earlier work

T1 sequence (P53686 whole entry): as above

## ARTKQTARKSTGG(AcK)APRKQL [AcLys-14 H3, reference compound]
[1]; estimated, read-out: Km for AcLys-14 H3
  Km: < 0.5 µM
[2]
  rate constant of AcLys-14 H3 peptide deacetylation (substrate consumption): 2.0 ± 0.1 s⁻¹

## NC(=O)c1ccc[n+]([C@@H]2O[C@H](COP(=O)([O-])OP(=O)(O)OC[C@H]3O[C@@H](n4cnc5c(=O)[nH]c(N)nc54)[C@H](O)[C@@H]3O)[C@@H](O)[C@H]2O)c1 [NGD, nicotinamide guanine dinucleotide]
[3]
  ability to serve as substrate, generating O-acetyl-NDP ribose product: can serve as substrates for the SIR2 family of enzymes

## NC(=O)c1ccc[n+]([C@@H]2O[C@H](COP(=O)([O-])OP(=O)(O)OC[C@H]3O[C@@H](n4cnc5c(N)ncnc54)[C@H](O)[C@@H]3O)[C@@H](O)[C@H]2O)c1 [NAD^+, nicotinamide adenine dinucleotide]
[1]; 37° C., 50 mM Tris pH 7.5, read-out: Km for NAD^+
  Km: 70 µM
[4]
  Km: 50 to 70 µM
